Experimental data: patent publication US20240398808A1, “DIHYDROFOLATE FOR HYPOGLYCEMIC ACTIVITY” (COUNCIL OF SCIENTIFIC AND INDUSTRIAL RESEARCH an india …, priority 2023, published 2024)
Marks after values point to notes of the source that are not given here.

How the values were obtained:
diabetic Wistar rats [1] = assay: Oral glucose tolerance test (OGTT) in diabetic Wistar rats; format: in vivo; conditions: for whole blood glucose values from baseline: 0-120 min
Procedure: Fasting blood sugar concentration was estimated.
Oral glucose tolerance test (OGTT). The test was performed by oral administration of glucose (2 g/kg body wt). Graph showing blood glucose concentration before (0 min) and 30, 60, 90, and 120 min after administration. Data are shown as the mean±SEM (n=6).

rat liver homogenate = assay: In vitro glucose assay using rat liver homogenate; format: biochemical; conditions: 100 μM glucose, 25 μM or 50 μM folates, 37° C., 1 hour
Procedure: The glucose concentration was determined after incubation at 37° C. for 1 hour.
(A) Folates at a concentration of 25 μM. (B) Folates at 50 μM. Control represents glucose concentration without folate treatment which is considered to be 100%. The results are presented as mean±SD (n=3), and the significance of the values was analyzed by one-way ANOVA followed by Tukey's test (p<0.05). *p<0.05, **p<0.01, […], ***p<0.0001.

diabetic Wistar rats [2] = assay: Organ histology (islets of the pancreas) in diabetic Wistar rats; format: in vivo; conditions: long-term oral administration
diabetic Wistar rats [3] = assay: Organ weight after long-term oral administration in diabetic Wistar rats; format: in vivo; parameters: unit not given here; conditions: mean±SD (n=6)
Procedure: The results are presented as mean±SD (n=6), and the significance of the values was analyzed by one-way ANOVA followed by Tukey's test (p<0.05). *p<0.05, **p<0.01, ***p<0.001, ****p<0.0001.

[4] = 400 μg folate vs equimolar amounts, after 8 weeks of treatment; cited from earlier work

SMILES | time at which decline in whole blood glucose leveled off (diabetic Wistar rats [1]; OGTT) | whole blood glucose values from baseline (diabetic Wistar rats [1]; OGTT) | glucose concentration upon treatment (rat liver homogenate) | histology of islets of the pancreas / beta cells (diabetic Wistar rats [2]) | Organ weight, Adipose (diabetic Wistar rats [3]) | Organ weight, Brain (diabetic Wistar rats [3]) | Organ weight, Cecum matter (diabetic Wistar rats [3]) | Organ weight, Heart (diabetic Wistar rats [3]) | Organ weight, Kidney (diabetic Wistar rats [3]) | Organ weight, Liver (diabetic Wistar rats [3]) | Organ weight, Lungs (diabetic Wistar rats [3]) | Organ weight, Spleen (diabetic Wistar rats [3]) | Organ weight, Testes (diabetic Wistar rats [3]) | serum folate concentrations compared to the folate group [4] [fold] | glucose tolerance (diabetic Wistar rats [1]; oral glucose 2 g/kg body wt)
CN1c2c(nc(N)[nH]c2=O)NCC1CNc1ccc(C(=O)N[C@@H](CCC(=O)O)C(=O)O)cc1 (some centres unmarked) [5-methyltetrahydrofolate] | about 120 minutes | gradual decline | decreased | Moderate hypertrophy of islets of the pancreas and moderate hyperplasia of beta cells | 2.77 ± 2.11** | 1.46 ± 0.18 | 4.33 ± 0.95 | 0.82 ± 0.23 | 2.12 ± 0.2 | 8.49 ± 2.52 | 1.93 ± 0.62 | 0.92 ± 0.35 | 2.31 ± 0.79 | – | –
CN1c2c(nc(N)[nH]c2=O)NC[C@H]1CNc1ccc(C(=O)N[C@@H](CCC(=O)O)C(=O)O)cc1 [[6R,S]-5-methyltetrahydrofolate] | – | – | – | – | – | – | – | – | – | – | – | – | – | ~3 | –
Nc1nc(=O)c2c([nH]1)NCC(CNc1ccc(C(=O)N[C@@H](CCC(=O)O)C(=O)O)cc1)=N2 [dihydrofolate] | – | more gradual decline | decreased | Severe hypertrophy of islets of the pancreas with hyperplasia of beta cells | 5.43 ± 1.75* | 1.64 ± .09 | 2.72 ± 0.51 | 0.88 ± 0.07 | 1.74 ± 0.21 | 10.68 ± 1.46 | 2.09 ± 0.18 | 1.09 ± 0.10 | 2.88 ± 0.27 | – | greater effect
Nc1nc(=O)c2nc(CNc3ccc(C(=O)N[C@@H](CCC(=O)O)C(=O)O)cc3)cnc2[nH]1 [synthetic folate] | – | did not show much declaim | no effect | Moderate atrophy of islets of the pancreas with apoptosis of beta cells | 0.87 ± 0.60**** | – | 6.46 ± 1.49 | 0.68 ± 0.07 | 2.12 ± 0.46 | 7.35 ± 1.02 | 1.46 ± 0.38 | 0.66 ± 0.08 | 2.57 ± 0.95 | – | –
